Experimental data from patent US7579371B2, “Methods of using [3.2.0] heterocyclic compounds and analogs thereof” (Nereus Pharmaceuticals, Inc., priority 2004, dated 2009).
“And” between values parts separate entries of the source, which are not always exact repeats. Identical values can stand only once.

Columns and labels:
B16-F10 = test: Cell growth inhibition assay (resazurin, 48 h); format: cell-based, mouse; settings: B16-F10, 48 h
Procedure: RPMI 8226 (CCL-155), HT-29 (HTB-38), and B16-F10 (CRL-6475) cells were purchased from ATCC. RPMI 8226 cells were maintained in RPMI 1640 media supplemented with 10% (v/v) FBS, 2 mM L-glutamine, 1 mM sodium pyruvate and Penicillin/Streptomycin at 100 IU/ml and 100 μg/ml, respectively. HT-29 cells were maintained in McCoys 5A supplemented with 10% (v/v) FBS, 2 mM L-glutamine, 1 mM sodium pyruvate, 1% (v/v) non-essential amino acids, 10 mM HEPES and Penicillin/Streptomycin at 100 IU/ml and 100 μg/ml, respectively. B16-F10 cells were maintained in DMEM supplemented with 10% (v/v) FBS, 2 mM L-glutamine, 10 mM HEPES and Penicillin/Streptomycin at 100 IU/ml and 100 μg/ml, respectively.
RPMI 8226 cells were seeded at 2×10^4 cells/well in 90 μl RPMI media containing 10% (v/v) FBS or 1% (v/v) FBS into 96 well black-walled, clear-bottom tissue culture plates. […] Formulae II-16, II-17 and Formula II-18 were serially diluted in media containing 1% or 10% FBS and added in triplicate to the test wells. […] The final concentration of Formula II-18 ranged from 2 μM to 630 pM.

DU 145 = test: Cell growth inhibition assay (resazurin, 48 h); format: cell-based, human
HEK293 = test: Cell growth inhibition assay (resazurin, 48 h); format: cell-based; settings: Homo sapiens, HEK293, 48 h
MDA-MB-231 = test: Cell growth inhibition assay (resazurin, 48 h); format: cell-based, human; settings: MDA-MB-231, 48 h
MIA PaCa-2 = test: Cell growth inhibition assay (resazurin, 48 h); format: cell-based; settings: Homo sapiens, MIA PaCa-2, 48 h
OVCAR-3 = test: Cell growth inhibition assay (resazurin, 48 h); format: cell-based, human; settings: OVCAR-3, 48 h
PANC-1 = test: Cell growth inhibition assay (resazurin, 48 h); format: cell-based; settings: Homo sapiens, PANC-1, 48 h
NF-κB = test: NF-κB-mediated luciferase reporter gene assay, HEK293 NF-κB/Luc cells, TNF-α stimulation; format: cell-based; settings: Homo sapiens, HEK293, read-out: EC50, NF-κB-mediated luciferase activity, 1 hr pretreatment, 6 hours TNF-α
Procedure: The HEK293 NF-κB/luciferase reporter cell line is a derivative of the human embryonic kidney cell line (ATCC; CRL-1573) and carries a luciferase reporter gene under the regulation of 5× NF-κB binding sites. […] When performing the luciferase assay, the DMEM basal medium was replaced with phenol-red free DMEM basal medium and the G418 was omitted.
For NF-κB-mediated luciferase assays, HEK293 NF-κB/luciferase cells were seeded at 1.5×10^4 cells/well in 90 μl phenol-red free DMEM complete medium into Corning 3917 white opaque-bottom tissue culture plates. For Formulae II-2, II-4, II-5A and II-18, a 400 μM starting dilution was made in 100% DMSO and this dilution was used to generate an 8-point half log dilution series. […] For formula II-20, a 2.5 mM or 8 mM starting dilution was made in 100% DMSO and the final test concentrations ranged from 6.3 μM to 2.0 nM or 20 μM to 6.3 nM respectively. The plates were returned to the incubator for 1 hour. After 1 hr pretreatment, 10 μl of a 50 ng/ml TNF-α solution, prepared in the phenol-red free DMEM medium was added, and the plates were incubated for an additional 6 hours.
At the end of the TNF-α stimulation, 100 μl of Steady Lite HTS luciferase reagent (Packard Bioscience) was added to each well and the plates were left undisturbed for 10 min at room temperature before measuring the luciferase activity. The relative luciferase units (RLU) were measured by using a Fusion microplate fluorometer (Packard Bioscience).
NF-κB inducible luciferase activity was measured at 6 hours.

LogD7.4 determination = settings: pH 7.4
Description: (§1) These studies consisted of solubility assessment, LogD^7.4 determination and a preliminary screen to detect cytochrome P450 enzyme inhibition.

CYP1A2 = CYP1A2 (Homo sapiens, UniProt P05177); test: Preliminary P450 inhibition screen; settings: tested at 10 μM
Sequence of CYP1A2 (P05177 whole entry): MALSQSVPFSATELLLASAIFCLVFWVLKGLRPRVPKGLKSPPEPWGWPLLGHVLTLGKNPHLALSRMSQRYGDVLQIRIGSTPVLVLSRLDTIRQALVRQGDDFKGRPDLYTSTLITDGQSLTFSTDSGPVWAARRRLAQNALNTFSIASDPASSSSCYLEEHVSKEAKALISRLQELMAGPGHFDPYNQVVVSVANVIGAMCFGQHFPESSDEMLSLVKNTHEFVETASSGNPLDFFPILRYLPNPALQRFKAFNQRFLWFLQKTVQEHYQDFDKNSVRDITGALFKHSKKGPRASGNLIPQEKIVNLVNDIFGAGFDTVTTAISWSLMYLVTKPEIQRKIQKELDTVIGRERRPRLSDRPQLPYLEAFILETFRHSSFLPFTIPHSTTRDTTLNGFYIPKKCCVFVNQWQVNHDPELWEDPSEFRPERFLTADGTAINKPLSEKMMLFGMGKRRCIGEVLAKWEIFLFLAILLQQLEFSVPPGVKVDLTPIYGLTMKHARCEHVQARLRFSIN
Description: as §1

CYP2C19 = CYP2C19 (Homo sapiens, UniProt P33261); test: Preliminary P450 inhibition screen; settings: tested at 10 μM
Sequence of CYP2C19 (P33261 whole entry): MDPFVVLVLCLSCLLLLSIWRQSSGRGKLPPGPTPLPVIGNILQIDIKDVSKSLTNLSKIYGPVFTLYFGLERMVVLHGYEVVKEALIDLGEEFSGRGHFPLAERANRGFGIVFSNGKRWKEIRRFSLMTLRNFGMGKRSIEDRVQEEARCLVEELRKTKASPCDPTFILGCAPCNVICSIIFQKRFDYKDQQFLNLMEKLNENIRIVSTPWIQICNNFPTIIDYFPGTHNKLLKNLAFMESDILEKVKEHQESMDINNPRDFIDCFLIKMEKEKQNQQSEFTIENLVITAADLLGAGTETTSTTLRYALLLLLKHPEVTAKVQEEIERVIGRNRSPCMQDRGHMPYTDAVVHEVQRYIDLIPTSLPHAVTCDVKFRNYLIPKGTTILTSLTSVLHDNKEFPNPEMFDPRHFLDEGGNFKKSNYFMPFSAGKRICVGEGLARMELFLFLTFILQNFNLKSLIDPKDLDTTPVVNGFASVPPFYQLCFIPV
Description: as §1

CYP2D6 = CYP2D6 (Homo sapiens, UniProt P10635); test: Preliminary P450 inhibition screen; settings: tested at 10 μM
Sequence of CYP2D6 (P10635 whole entry): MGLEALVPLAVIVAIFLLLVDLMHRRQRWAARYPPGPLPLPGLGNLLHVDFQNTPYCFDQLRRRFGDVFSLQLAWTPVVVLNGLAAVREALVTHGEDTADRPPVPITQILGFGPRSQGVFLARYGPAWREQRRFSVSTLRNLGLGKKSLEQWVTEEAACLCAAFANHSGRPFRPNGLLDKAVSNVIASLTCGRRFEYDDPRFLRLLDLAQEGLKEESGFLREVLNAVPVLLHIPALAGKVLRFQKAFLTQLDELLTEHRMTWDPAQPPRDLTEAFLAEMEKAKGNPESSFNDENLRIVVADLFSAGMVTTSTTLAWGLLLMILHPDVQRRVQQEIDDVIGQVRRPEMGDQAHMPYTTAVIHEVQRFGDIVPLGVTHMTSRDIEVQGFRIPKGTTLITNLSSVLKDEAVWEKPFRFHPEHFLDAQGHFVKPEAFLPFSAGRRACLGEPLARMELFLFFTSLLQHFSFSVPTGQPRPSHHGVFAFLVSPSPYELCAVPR
Description: as §1

[1] = tested on: 20S proteasome chymotrypsin-like activity in RPMI 8226 cells; test: Chymotrypsin-like activity of 20S proteasomes in treated RPMI 8226 cells; format: cell-based, human; settings: 1 nM, 1 hr
Procedure: RPMI 8226 (ATCC, CCL-155), the human multiple myeloma cell line, was cultured in RPMI 1640 medium supplemented with 2 mM L-glutamine, 100 units/ml penicillin, 100 μg/ml streptomycin, 1 mM sodium pyruvate and 10% heat inactivated fetal bovine serum at 37° C., 5% CO2 and 95% humidified air. […] DMSO was used as the vehicle control at a final concentration of 0.1%. Following 1 hr incubation of RMPI 8226 cells with the compounds, the cells were pelleted by centrifugation at 2,000 rpm for 10 sec at room temperature and washed 3× with ice-cold 1× Dulbecco's Phosphate-Buffered Saline (DPBS, Mediatech, Herndon, Va.). DPBS washed cells were lysed on ice for 15 min in lysis buffer (20 mM HEPES, 0.5 mM EDTA, 0.05% Triton X-100, pH 7.3) supplemented with protease inhibitor cocktail (Roche Diagnostics, Indianapolis, Ind.). Cell debris was pelleted by centrifugation at 14,000 rpm for 10 min, 4° C. and supernatants (=cell lysates) were transferred to a new tube. Protein concentration was determined by the BCA protein assay kit (Pierce Biotechnology, Rockford, Ill.). […] The released coumarin (AMC) was measured fluorometrically by using λex=390 nm and λem=460 nm. The assay was performed in a microtiter plate (Corning 3904) and followed kinetically with measurements every five minutes for 2 hr. The total amount of protein used for each assay was 20 μg. […]

NF-κB/Luc 293 cells = test: Viability of NF-κB/Luc 293 cells (resazurin, 24 hr); format: cell-based, human; settings: ~7 nM

## C[C@@]12OC(=O)[C@]1([C@@H](O)[C@@H]1C=CCCC1)NC(=O)[C@@H]2CCCl [Formula II-16, Salinosporamide A]
B16-F10
  EC50: 47 ± 20 nM
B16-F10; Mus musculus
  EC50: 33 nM
DU 145; DU 145
  % cytotoxicity: 75 ± 4%
DU 145; Homo sapiens, DU 145, 48 h
  EC50: 37 ± 10 nM
HEK293
  EC50: 47 nM
MDA-MB-231; Homo sapiens
  EC50: 67 nM
MDA-MB-231
  EC50: 87 ± 40 nM
MIA PaCa-2
  EC50: 46 nM
OVCAR-3; Homo sapiens
  EC50: 69 nM
OVCAR-3
  EC50: 49 ± 31 nM
PANC-1
  EC50: 60 nM
NF-κB
  EC50: ~7 nM
LogD7.4 determination
  LogD7.4: 2.4
CYP1A2
  inhibition of CYP1A2: 3%
CYP2C19
  inhibition of CYP2C19: 22%
CYP2D6
  inhibition of CYP2D6: 19%
[1]
  % inhibition of the chymotrypsin-like activity of 20S proteasomes in RPMI 8226 cell lysates: 30 ± 7%
NF-κB/Luc 293 cells
  cell viability at the NF-κB EC50 concentration: did not affect cell viability
HL-60; HL-60
  % cytotoxicity: 88% and 91%
HL-60; HL-60, 48 h
  EC50: 30 nM
